Test [1] has as its target T1, CatG (Homo sapiens, UniProt P08311).
T1 sequence (P08311 21-244): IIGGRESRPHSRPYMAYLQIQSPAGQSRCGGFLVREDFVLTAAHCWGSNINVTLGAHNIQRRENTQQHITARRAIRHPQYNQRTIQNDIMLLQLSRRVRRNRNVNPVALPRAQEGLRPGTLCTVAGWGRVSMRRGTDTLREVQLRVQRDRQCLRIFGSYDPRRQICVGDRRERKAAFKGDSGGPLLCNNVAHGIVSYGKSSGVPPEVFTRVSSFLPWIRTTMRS
The test is described as follows: Direct inhibition of human CatG, chromogenic substrate hydrolysis assay. The class given is biochemical. The protocol: The method further comprises inhibition of proteases. […] To each well of a 96-well microplate containing 88 μl of 20 mM tris buffer containing 100 mM NaCl, 2.5 mM CaCl2, 0.1% PEG 8000 and 0.05% tween 80 was added 3 μl of CatG (final concentration of 30 nM), and 5 μl of H2O or potential inhibitor (final concentration of 0-100 μM). Following a 5-min incubation, 3 μl of CatG substrate was added (final concentration 750 μM) and the residual CatG activity was obtained from the initial rate of increase of absorbance at 405 nm. The relative residual activity of CatG at each of the inhibitor concentrations was obtained from the ratio of CatG activity in the presence and absence of the inhibitor. Logistic Equation (1) was used to plot the dose-dependence curve to obtain the IC50 (potency) and efficacy of CatG inhibition. Here, Y is the ratio of residual CatG activity in the presence of inhibitor to that in its absence, YO and YM are the minimum and maximum values of fractional residual CatG activity, respectively, IC50 is the concentration of the inhibitor that results in 50% inhibition of CatG activity and HS is the Hill slope.
To each well of a 96-well microplate containing 88 μl of 20 mM tris buffer containing 100 mM NaCl, 2.5 mM CaCl2, 0.1% PEG 8000 and 0.05% tween 80 was added 3 μl of CatG (final concentration of 30 nM), and 5 μl of H2O or potential inhibitor (final concentration of 0-100 μM). Following a 5-min incubation, 3 μl of CatG substrate was added (final concentration 750 μM) and the residual CatG activity was obtained from the initial rate of increase of absorbance at 405 nm. The relative residual activity of CatG at each of the inhibitor concentrations was obtained from the ratio of CatG activity in the presence and absence of the inhibitor. Logistic Equation (1) was used to plot the dose-dependence curve to obtain the IC50 (potency) and efficacy of CatG inhibition. Here, Y is the ratio of residual CatG activity in the presence of inhibitor to that in its absence, YO and YM are the minimum and maximum values of fractional residual CatG activity, respectively, IC50 is the concentration of the inhibitor that results in 50% inhibition of CatG activity and HS is the Hill slope.

The target of test [2] is Human FXIa (Homo sapiens, UniProt P03951). The experiment in a line: Direct inhibition of FXIa, chromogenic substrate hydrolysis assay. The format is biochemical. The note with it: Tris-HCl buffer. As to the method:
(§1) Direct inhibitions of thrombin (FIIa), factor VIIa (FVIIa), factor IXa (FIXa), factor Xa (FXa), FXIa, factor XIIa (FXIIa), trypsin and chymotrypsin were evaluated using the corresponding chromogenic substrate hydrolysis assays as previously reported. Briefly, to each well of a 96-well microplate containing 85-185 μl of […] Tris buffer containing 100 mM NaCl, 2.5 mM CaCl2, 0.1% PEG 8000, and 0.05% tween 80 at 25 (thrombin) or 37° C. (FVIIa, FIXa, FXa, FXIa, FXIIa, chymotrypsin, and trypsin) were added 5 μl of enzyme (thrombin, FVIIa, FIXa, FXa, FXIa, FXIIa, chymotrypsin, and trypsin) and 5 μl of the inhibitor. Following an incubation period of 5 min, the appropriate chromogenic substrates (Spectrozyme TH, Spectrozyme FIXa, Spectrozyme FXa, S-2366, Spectrozyme FXIIa and S-2222) were added and the residual enzyme activity was measured from the initial rate of increase in absorbance at 405 nm. Relative residual enzyme activity as a function of the inhibitor concentration was fitted using Logistic Equation (1) to obtain the IC50 (potency), A Y % (efficacy) of enzyme inhibition, and HS (Hill slope). The concentrations of enzymes and substrates in microplate cells were: 6 nM and 50 μM for thrombin; 1.09 nM and 125 μM for FXa; 5 nM and 125 μM for FXIIa; 89 nM and 850 μM for FIXa; 8 nM and 1000 µM for FVIIa (along with 40 nM recombinant tissue factor); 72.5 ng/ml and 80 μM for bovine trypsin; and 500 ng/ml and 240 μM for bovine chymotrypsin.

The target of test [3] is Thrombin (human FIIa) (Homo sapiens, UniProt P00734). The experiment in a line: Direct inhibition of thrombin, chromogenic substrate hydrolysis assay. The format is biochemical. The note with it: Tris-HCl buffer; estimated from the highest concentration used. As to the method:
as §1, with “The concentrations of enzymes and substrates in microplate cells were: 6 nM and 50 μM for thrombin; 1.09 nM and 125 μM for FXa; 5 nM and 125 μM for FXIIa; 89 nM and 850 μM for FIXa; 8 nM and 1000 µM for FVIIa (along with 40 nM recombinant tissue factor); 72.5 ng/ml and 80 μM for bovine trypsin; and 500 ng/ml and 240 μM for bovine chymotrypsin.” left out

Test [4] deals with T2, FXa (Homo sapiens, UniProt P00742).
T2 construct: factor Xa (FXa), FXIa, factor XIIa (FXIIa), trypsin and chymotrypsin
The experiment in a line: Direct inhibition of FXa, chromogenic substrate hydrolysis assay. The format is biochemical. The conditions noted are these: Tris-HCl buffer. The protocol:
as §1, with “The concentrations of enzymes and substrates in microplate cells were: 6 nM and 50 μM for thrombin; 1.09 nM and 125 μM for FXa; 5 nM and 125 μM for FXIIa; 89 nM and 850 μM for FIXa; 8 nM and 1000 µM for FVIIa (along with 40 nM recombinant tissue factor); 72.5 ng/ml and 80 μM for bovine trypsin; and 500 ng/ml and 240 μM for bovine chymotrypsin.” left out

In test [5] the target is T1, CatG. The note with it: reported; read-out: estimated Ki, allosteric inhibitor; cited from earlier work.
[6] abbreviates: Tris buffer pH 7.4, 37° C., 100 mM NaCl, read-out: IC50.

Like-named read-outs stand apart in the source and are kept apart here. A value given as a limit tells only on which side of the number the result lay.

Chain of Human FXIa (P03951 388-625): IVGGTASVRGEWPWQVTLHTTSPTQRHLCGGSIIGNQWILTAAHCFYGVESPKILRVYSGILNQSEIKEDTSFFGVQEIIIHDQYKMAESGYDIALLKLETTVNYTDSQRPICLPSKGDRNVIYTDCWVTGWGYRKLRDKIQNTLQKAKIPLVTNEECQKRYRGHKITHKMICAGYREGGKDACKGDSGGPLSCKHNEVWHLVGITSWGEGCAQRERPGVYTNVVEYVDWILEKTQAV
Chain of Human FXIa (P03951 19-387 partner): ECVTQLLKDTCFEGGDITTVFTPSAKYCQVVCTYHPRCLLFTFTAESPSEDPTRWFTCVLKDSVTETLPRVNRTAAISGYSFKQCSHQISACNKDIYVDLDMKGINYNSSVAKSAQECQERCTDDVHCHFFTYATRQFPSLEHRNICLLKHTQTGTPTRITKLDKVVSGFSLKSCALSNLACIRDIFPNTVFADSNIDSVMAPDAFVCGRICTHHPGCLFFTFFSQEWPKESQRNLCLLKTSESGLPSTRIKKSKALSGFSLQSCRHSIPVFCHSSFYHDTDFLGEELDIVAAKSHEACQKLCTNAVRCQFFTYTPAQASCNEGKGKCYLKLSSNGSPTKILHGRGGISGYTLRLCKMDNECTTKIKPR
T2 sequence (P00742 235-488): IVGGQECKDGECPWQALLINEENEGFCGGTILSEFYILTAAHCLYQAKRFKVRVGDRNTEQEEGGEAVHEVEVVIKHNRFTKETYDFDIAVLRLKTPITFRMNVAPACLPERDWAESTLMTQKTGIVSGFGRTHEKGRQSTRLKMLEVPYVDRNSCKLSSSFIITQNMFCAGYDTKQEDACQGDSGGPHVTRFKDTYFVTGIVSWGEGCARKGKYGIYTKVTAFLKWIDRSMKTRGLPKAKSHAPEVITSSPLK
T2 sequence (P00742 41-179 partner): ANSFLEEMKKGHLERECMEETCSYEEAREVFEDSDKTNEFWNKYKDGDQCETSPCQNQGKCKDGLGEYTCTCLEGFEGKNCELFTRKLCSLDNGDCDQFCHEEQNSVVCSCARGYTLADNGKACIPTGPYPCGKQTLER

As to `O=C(Nc1cc(C(=O)Nc2ccccc2S(=O)(=O)O)cc(C(=O)Nc2ccccc2S(=O)(=O)O)c1)Nc1cc(C(=O)Nc2ccccc2S(=O)(=O)O)cc(C(=O)Nc2ccccc2S(=O)(=O)O)c1` [2,2′,2″,2″′-((5,5′-(carbonylbis(azanediyl))bis(isophthaloyl))tetrakis(azanediyl))tetrabenzenesulfonic acid], in test [1] (Table 6, read-out: CATG IC50), the 50% inhibitory concentration (IC50) was in the range of 1 to 5 µM.

`O=C(Nc1cc(C(=O)Nc2cc(S(=O)(=O)O)ccc2S(=O)(=O)O)cc(C(=O)Nc2cc(S(=O)(=O)O)ccc2S(=O)(=O)O)c1)Nc1cc(C(=O)Nc2cc(S(=O)(=O)O)ccc2S(=O)(=O)O)cc(C(=O)Nc2cc(S(=O)(=O)O)ccc2S(=O)(=O)O)c1` [2,2′,2″,2″′-((5,5′-(carbonylbis(azanediyl))bis(isophthaloyl))tetrakis(azanediyl))tetrakis(benzene-1,4-disulfonic acid)]: in test [1] (Table 6, read-out: CATG IC50), the concentration for half-maximal inhibition (IC50) was 1 to 5 µM.

Consider `O=C(Nc1cc(C(=O)Nc2ccc(S(=O)(=O)O)cc2)cc(C(=O)Nc2ccc(S(=O)(=O)O)cc2S(=O)(=O)O)c1)Nc1cc(C(=O)Nc2ccc(S(=O)(=O)O)cc2)cc(C(=O)Nc2ccc(S(=O)(=O)O)cc2S(=O)(=O)O)c1` [4,4′-((3,3′-(carbonylbis(azanediyl))bis(5-((4-sulfophenyl)carbamoyl)benzoyl))bis(azanediyl))bis(benzene-1,3-disulfonic acid)], for which the IC50 in test [1] (Table 6, read-out: CATG IC50) was in the range of 0.5 to 1 µM.

As for `O=C(Nc1cccc(C(=O)Nc2cccc(C(=O)Nc3cccc(P(=O)(O)O)c3)c2)c1)Nc1cccc(C(=O)Nc2cccc(C(=O)Nc3cccc(P(=O)(O)O)c3)c2)c1` [(((3,3′-((3,3′-(carbonylbis(azanediyl))bis(benzoyl))bis(azanediyl))bis(benzoyl))bis(azanediyl))bis(3,1-phenylene))bis(phosphonic acid)], in test [1] (Table 6, read-out: CATG IC50), the IC50 lay within 1 to 10 µM.

Turning to `Cc1ccc(C(=O)Nc2ccc(CP(=O)(O)O)cc2)cc1NC(=O)c1cccc(NC(=O)Nc2cccc(C(=O)Nc3cc(C(=O)Nc4ccc(CP(=O)(O)O)cc4)ccc3C)c2)c1` [((((3,3′-((3,3′-(carbonylbis(azanediyl))bis(benzoyl))bis(azanediyl))bis(4-methylbenzoyl))bis(azanediyl))bis(4,1-phenylene))bis(methylene))bis(phosphonic acid)], the IC50 in test [1] (Table 6, read-out: CATG IC50) lay in the range of 10 to 100 µM.

With `Cc1ccc(C(=O)Nc2ccc(CP(=O)(O)O)cc2CP(=O)(O)O)cc1NC(=O)Nc1cc(C(=O)Nc2ccc(CP(=O)(O)O)cc2CP(=O)(O)O)ccc1C` [((((3,3′-(carbonylbis(azanediyl))bis(4-methylbenzoyl))bis(azanediyl))bis(4,1-phenylene))bis(methylene))bis(phosphonic acid)], the half-inhibitory concentration (IC50) in test [1] (Table 6, read-out: CATG IC50) is 10 to 100 µM.

For `O=C(Nc1cccc(C(=O)Nc2ccc(CP(=O)(O)O)cc2CP(=O)(O)O)c1)Nc1cccc(C(=O)Nc2ccc(CP(=O)(O)O)cc2CP(=O)(O)O)c1` [((((3,3′-(carbonylbis(azanediyl))bis(4-methylbenzoyl))bis(azanediyl))bis(benzene-4,1,3-triyl))tetrakis(methylene))tetrakis(phosphonic acid)], in test [1] (Table 6, read-out: CATG IC50), the IC50 was in the range of 1 to 10 µM.

On to `O=C(Nc1cc(C(=O)Nc2ccc(S(=O)(=O)O)cc2)cc(C(=O)Nc2ccc(S(=O)(=O)O)cc2)c1)Nc1cc(C(=O)Nc2ccc(S(=O)(=O)O)cc2)cc(C(=O)Nc2ccc(S(=O)(=O)O)cc2)c1` [Formula I, 4,4′,4″,4″-((5,5′-(carbonylbis(azanediyl))bis(isophthaloyl))tetrakis(azanediyl))tetrabenzenesulfonic acid], for which the “HS (Hill slope)” value is given as 1.2 ± 0.2 in test [2] and 1.7 ± 0.4 in test [1] (Tris buffer pH 7.4, 37° C.). Besides, the IC50 was 29.5 ± 4.6 µM in test [2]; above 100 µM in test [3]; 0.83 µM in test [1] (Table 6, read-out: CATG IC50); 0.083 ± 0.14 µM in test [1] (setting [6]); above 100 µM in test [4]. Also, the “ΔY (efficacy)” value in test [2] stood at 90.9 ± 5.8%; in test [1] (Tris buffer pH 7.4, 37° C.), 91.9 ± 6.8%.

Regarding `Cc1ccc(C(=O)Nc2ccc(CP(=O)(O)O)cc2CP(=O)(O)O)cc1NC(=O)c1cccc(NC(=O)Nc2cccc(C(=O)Nc3cc(C(=O)Nc4ccc(CP(=O)(O)O)cc4CP(=O)(O)O)ccc3C)c2)c1` [Formula III, ((((3,3′-((3,3′-(carbonylbis(azanediyl))bis(benzoyl))bis(azanediyl))bis(4-methylbenzoyl))bis(azanediyl))bis(benzene-4,1,3-triyl))tetrakis(methylene))tetrakis(phosphonic acid)], the “HS (Hill slope)” value was 1.9 ± 0.5 in test [2] and 1.1 ± 0.1 in test [1] (Tris buffer pH 7.4, 37° C.). Also, the “ΔY (efficacy)” value in test [2] is listed as 68.0 ± 3.7%; in test [1] (Tris buffer pH 7.4, 37° C.), 87.5 ± 1.8%. The IC50 in test [3] is above 500 µM; in test [1] (Table 6, read-out: CATG IC50) it was 3.1 µM; in test [1] (setting [6]), 3.1 µM; in test [4] it was above 100 µM.

As to heparin, the inhibitory constant (Ki) in test [5] was below 0.025 nM.

Source of the values: patent US20250100963A1, “SULFONATED AND PHOSPHORYLATED AROMATIC MOLECULES” (Xavier University of Louisiana, priority 2023, published 2025).
